Here are results for eleven molecules from patent US8461189B2, “Pyridyl derivatives as histone deacetylase inhibitors” (Merck Sharp & Dohme Corp., priority 2007, dated 2013).

Read-outs that look alike come from different tables or passages of the source. Where only a bound is given, the exact number is not on record here.

Data set [1] addresses Cyp3A4 (Homo sapiens, UniProt P08684). Nature of the data set: Cyp inhibition, Cyp3A4. Format: in vitro ADME. To be noted: read-out: Percent Cyp inhibition, Cyp3A4.
The subject of data set [2] is HCT-116 cells. Nature of the data set: ATP (Vialight) cell proliferation assay, HCT-116. Format: cell-based. To be noted: Homo sapiens. The method, then: (§1) The novel compounds of the present invention were tested for their ability to inhibit proliferation of the human cervical cancer (HeLa) and colon carcinoma (HCT116) cells.
(§2) In this assay, also referred to as the Vialight Assay, cellular ATP levels are measured as a means of quantifying cellular proliferation. This assay makes use of a bioluminescent method from Cambrex (ViaLight PLUS, cat. #LT07-121). In the presence of ATP, luciferase converts luciferin to oxyluciferin and light. The amount of light produced (emission at 565 nm) is measured and correlates with a relative amount of proliferation. Human cervical cancer (HeLa) or colon carcinoma (HCT116) cells were incubated with vehicle or increasing concentrations of compound for 48, 72 or 96 hours. Cell proliferation was quantified by adding the cell lysis reagent (provided in the Vialight assay kit) directly to culture wells, followed by addition of the ATP-monitoring reagent (containing luciferase/luciferin). The amount of light produced is then measured (emission at 565 nm). The quantity of light produced, as measured by […], is directly proportional to the number of living cells in culture.

Data set [3] concerns the target Cyp 2D6 (Homo sapiens, UniProt P10635). Nature of the data set: Cyp inhibition, Cyp2D6. Format: in vitro ADME. Particulars: read-out: Percent Cyp inhibition, 2D6.
In data set [4] the target is Cyp 2C9 (Homo sapiens, UniProt P11712). Nature of the data set: Cyp inhibition, Cyp2C9. In kind it is in vitro ADME. To be noted: read-out: Percent Cyp inhibition, 2C9.
Sequence of Cyp 2C9 (P11712 whole entry): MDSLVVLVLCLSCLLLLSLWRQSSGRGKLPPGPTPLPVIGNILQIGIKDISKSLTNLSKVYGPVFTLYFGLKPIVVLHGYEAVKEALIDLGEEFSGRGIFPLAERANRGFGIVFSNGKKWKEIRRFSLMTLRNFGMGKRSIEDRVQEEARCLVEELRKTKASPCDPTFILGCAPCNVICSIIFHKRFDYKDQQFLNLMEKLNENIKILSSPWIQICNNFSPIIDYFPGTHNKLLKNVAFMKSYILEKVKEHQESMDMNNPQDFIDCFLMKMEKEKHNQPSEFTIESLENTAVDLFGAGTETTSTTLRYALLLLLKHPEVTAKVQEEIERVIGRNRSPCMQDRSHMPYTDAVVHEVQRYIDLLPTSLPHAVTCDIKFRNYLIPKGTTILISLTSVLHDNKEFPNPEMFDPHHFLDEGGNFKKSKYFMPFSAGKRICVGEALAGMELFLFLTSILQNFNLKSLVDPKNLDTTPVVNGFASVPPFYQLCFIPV
Data set [5] concerns the target MK-499 binding (Homo sapiens, UniProt Q12809). As to the kind of experiment: MK-499 binding. Particulars: read-out: inflection point for MK-499 binding.
In data set [6] the target is T1, human HDAC1 complex (Homo sapiens, UniProt Q13547).
T1 construct: Flag; made in house
T1 sequence (Q13547 whole entry, one chain of several): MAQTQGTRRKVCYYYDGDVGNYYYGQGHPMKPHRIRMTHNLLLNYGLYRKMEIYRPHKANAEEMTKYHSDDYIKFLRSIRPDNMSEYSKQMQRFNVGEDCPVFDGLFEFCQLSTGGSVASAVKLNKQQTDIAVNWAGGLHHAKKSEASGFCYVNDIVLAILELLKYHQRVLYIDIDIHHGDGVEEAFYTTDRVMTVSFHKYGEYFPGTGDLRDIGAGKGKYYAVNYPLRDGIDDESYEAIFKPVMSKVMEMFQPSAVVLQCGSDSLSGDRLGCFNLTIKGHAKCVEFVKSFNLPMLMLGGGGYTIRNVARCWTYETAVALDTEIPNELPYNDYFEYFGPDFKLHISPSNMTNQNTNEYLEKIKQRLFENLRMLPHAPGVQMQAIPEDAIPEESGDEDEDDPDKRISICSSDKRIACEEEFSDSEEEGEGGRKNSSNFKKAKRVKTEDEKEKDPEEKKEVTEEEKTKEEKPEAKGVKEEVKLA
As to the kind of experiment: HDAC1-Flag in vitro deacetylation assay. Format: biochemical. The procedure:
Novel compounds were tested for their ability to inhibit histone deacetylase, subtype 1 (HDAC1) using an in vitro deacetylation assay. The enzyme source for this assay was an epitope-tagged human HDAC1 complex immuno-purified from stably expressing mammalian cells. The substrate consisted of a commercial product containing an acetylated lysine side chain (BIOMOL Research Laboratories, Inc., Plymouth Meeting, Pa.). Upon deacetylation of the substrate by incubation with the purified HDAC1 complex, a fluorophore is produced that is directly proportional to the level of deacetylation. Using a substrate concentration at the Km for the enzyme preparation, the deacetylation assay was performed in the presence of increasing concentrations of novel compounds to semi-quantitatively determine the concentration of compound required for 50% inhibition (IC50) of the deacetylation reaction.

For data set [7], the system named is human cervical cancer (HeLa) or colon carcinoma (HCT116) cells. As to the kind of experiment: Prol-72 hr, ATP (Vialight) proliferation assay, cell line not given. In kind it is cell-based. Particulars: Table 2, IP = inflection point, cell line not stated. The method, then:
as §1, §2

Where [8] appears, read: Table 2, IP = inflection point, read-out: HDAC1 IP*.
Setting [9] is: Table 3, IP = inflection point, read-out: HDAC 1 IP*.

As usually defined, the inhibition is the drop in the measured response relative to a control, in per cent.

Sequence of Cyp3A4 (P08684 whole entry, species assumed): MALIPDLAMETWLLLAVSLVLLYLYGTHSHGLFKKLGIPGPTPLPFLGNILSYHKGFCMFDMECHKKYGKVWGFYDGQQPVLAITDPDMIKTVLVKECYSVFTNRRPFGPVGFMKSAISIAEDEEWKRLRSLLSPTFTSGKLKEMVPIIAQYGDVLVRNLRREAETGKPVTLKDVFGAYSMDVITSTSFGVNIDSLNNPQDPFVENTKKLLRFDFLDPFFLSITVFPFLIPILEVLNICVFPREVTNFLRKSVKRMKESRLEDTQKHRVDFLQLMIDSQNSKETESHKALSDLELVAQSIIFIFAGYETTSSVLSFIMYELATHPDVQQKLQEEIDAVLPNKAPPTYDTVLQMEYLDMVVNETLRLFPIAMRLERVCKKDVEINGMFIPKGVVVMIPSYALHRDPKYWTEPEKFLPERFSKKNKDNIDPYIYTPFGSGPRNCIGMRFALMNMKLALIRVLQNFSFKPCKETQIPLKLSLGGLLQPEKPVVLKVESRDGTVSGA
Sequence of Cyp 2D6 (P10635 whole entry): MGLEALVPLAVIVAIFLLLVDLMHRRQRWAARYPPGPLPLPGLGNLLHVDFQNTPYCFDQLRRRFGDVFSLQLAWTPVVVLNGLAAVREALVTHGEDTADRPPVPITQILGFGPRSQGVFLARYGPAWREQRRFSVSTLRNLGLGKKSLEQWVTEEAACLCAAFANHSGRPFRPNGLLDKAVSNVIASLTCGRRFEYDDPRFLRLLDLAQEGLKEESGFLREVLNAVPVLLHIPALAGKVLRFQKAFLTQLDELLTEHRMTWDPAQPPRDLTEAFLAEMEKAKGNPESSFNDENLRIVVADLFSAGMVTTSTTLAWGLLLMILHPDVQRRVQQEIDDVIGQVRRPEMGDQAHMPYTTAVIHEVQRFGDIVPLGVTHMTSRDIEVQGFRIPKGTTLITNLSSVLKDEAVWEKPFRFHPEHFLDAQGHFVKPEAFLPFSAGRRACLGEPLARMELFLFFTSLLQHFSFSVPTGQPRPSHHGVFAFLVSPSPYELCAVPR
Sequence of MK-499 binding (Q12809 whole entry): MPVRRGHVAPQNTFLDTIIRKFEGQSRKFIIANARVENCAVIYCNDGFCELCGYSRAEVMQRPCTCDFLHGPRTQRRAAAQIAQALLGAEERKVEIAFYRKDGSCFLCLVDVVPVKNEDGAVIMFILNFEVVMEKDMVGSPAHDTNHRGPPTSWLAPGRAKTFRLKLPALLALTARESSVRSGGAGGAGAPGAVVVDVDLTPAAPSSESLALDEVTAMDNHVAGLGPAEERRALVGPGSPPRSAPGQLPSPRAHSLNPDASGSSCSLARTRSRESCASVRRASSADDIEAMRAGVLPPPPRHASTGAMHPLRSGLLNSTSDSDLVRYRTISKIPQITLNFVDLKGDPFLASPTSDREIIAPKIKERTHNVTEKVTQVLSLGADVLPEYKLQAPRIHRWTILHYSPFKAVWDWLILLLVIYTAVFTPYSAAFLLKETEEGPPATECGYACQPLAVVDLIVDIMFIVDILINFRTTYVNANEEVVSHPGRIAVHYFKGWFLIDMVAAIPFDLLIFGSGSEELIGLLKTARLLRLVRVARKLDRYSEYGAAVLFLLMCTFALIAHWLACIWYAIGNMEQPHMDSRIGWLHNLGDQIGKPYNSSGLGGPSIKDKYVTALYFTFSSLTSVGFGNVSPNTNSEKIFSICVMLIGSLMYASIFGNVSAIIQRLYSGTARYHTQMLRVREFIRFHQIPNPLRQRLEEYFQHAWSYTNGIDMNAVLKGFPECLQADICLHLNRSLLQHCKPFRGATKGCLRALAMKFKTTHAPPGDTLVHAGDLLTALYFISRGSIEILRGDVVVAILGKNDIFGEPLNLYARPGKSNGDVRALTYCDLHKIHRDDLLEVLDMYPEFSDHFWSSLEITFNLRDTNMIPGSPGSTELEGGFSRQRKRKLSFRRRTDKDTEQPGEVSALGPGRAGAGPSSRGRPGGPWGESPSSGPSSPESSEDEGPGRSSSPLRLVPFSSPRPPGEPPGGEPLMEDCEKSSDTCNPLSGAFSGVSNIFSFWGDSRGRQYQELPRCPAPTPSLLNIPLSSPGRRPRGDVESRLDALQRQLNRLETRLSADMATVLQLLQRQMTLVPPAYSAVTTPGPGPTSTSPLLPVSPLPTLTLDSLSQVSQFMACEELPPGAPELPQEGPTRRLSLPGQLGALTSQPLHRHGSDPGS

As to `COC(=O)NCc1ccc(C(=O)Nc2nc(-c3ccccc3)ccc2N)cc1` [Methyl(4-{[(3-amino-6-phenylpyridin-2-yl)amino]carbonyl}benzyl)carbamate], the results for the inhibition at 10 µM in data set [1], in data set [3] and in data set [4] were 29%, 27% and 49%, respectively. Moreover, the IC50 in data set [2] was 1.2 µM; in data set [5], greater than 10 µM; in data set [6] (read-out: in vitro HDAC1 IC50), 0.037 µM.

`Nc1ccc(-c2ccccc2)nc1NC(=O)c1ccc(CNC(=O)OCc2cccnc2)cc1` [Pyridin-3-ylmethyl[(4-{[(3-amino-6-phenylpyridin-2-yl)amino]carbonyl}phenyl)methyl]carbamate]: the inhibition at 10 µM in data set [1] was 46%; in data set [3], 55%; in data set [4], 54%. In addition, the IC50 was 0.58 µM in data set [2], greater than 30 µM in data set [5] and 0.084 µM in data set [6] (read-out: in vitro HDAC1 IC50).

`Nc1ccc(-c2cccs2)nc1NC(=O)c1ccc(CNC(=O)OCc2cccnc2)cc1` [pyridin-3-ylmethyl {[4-({[3-amino-6-(2-thienyl)pyridin-2-yl]amino}carbonyl)phenyl]methyl}carbamate]: the IC50 in data set [2] stood at 0.56 µM; in data set [6] (read-out: in vitro HDAC1 IC50), 0.056 µM.

Turning to `Nc1ccc(-c2ccccc2)nc1NC(=O)c1ccccc1` [N-(3-amino-6-phenylpyridin-2-yl)benzamide], the IC50 in data set [6] (setting [8]) amounted to 1.16 µM.

With `Nc1ccc(-c2ccccc2)nc1NC(=O)c1ccc(CNC(=O)Oc2ccccc2)cc1` [phenyl (4-{[(3-amino-6-phenylpyridin-2-yl)amino]carbonyl}benzyl)carbamate], the IC50 in data set [6] (setting [9]) was 0.012 µM.

`CC(=O)Nc1ccc(C(=O)Nc2nc(-c3ccccc3)ccc2N)cc1` [4-(Acetylamino)-N-(3-amino-6-phenylpyridin-2-yl)benzamide]: the results for the IC50 in data set [2] and in data set [6] (read-out: in vitro HDAC1 IC50) were 2.05 µM and 0.086 µM, respectively.

Take `CCOC(=O)NCc1ccc(C(=O)Nc2nc(-c3ccccc3)ccc2N)cc1` [ethyl (4-{[(3-amino-6-phenylpyridin-2-yl)amino]carbonyl}benzyl)carbamate]: the IC50 in data set [6] (setting [9]) was 0.011 µM.

Turning to `Nc1ccc(-c2ccccc2)nc1NC(=O)c1ccc(CNC(=O)OCc2ccccn2)cc1` [Pyridin-2-ylmethyl(4-{[(3-amino-6-phenylpyridin-2-yl)amino]carbonyl}benzyl)carbamate], the figures for the inhibition at 10 µM in data set [1], in data set [3] and in data set [4] were 27%, 24% and 47%, respectively. Further, the IC50 in data set [2] worked out at 0.56 µM; in data set [5] it was 2540 µM; in data set [6] (read-out: in vitro HDAC1 IC50), 0.035 µM.

In the case of `Nc1ccc(-c2ccccc2)nc1NC(=O)c1ccc(CNC(=O)OCc2ccccc2)cc1` [Benzyl(4-{[(3-amino-6-phenylpyridin-2-yl)amino]carbonyl}benzyl)carbamate], the inhibition at 10 µM in data set [1] is 7%; in data set [3] it was 24%; in data set [4], 25%. Further, the IC50 in data set [2] is 0.59 µM; in data set [5], 12.2 µM; in data set [6] (read-out: in vitro HDAC1 IC50), 0.032 µM.

Consider `COC(=O)c1ccc(C(=O)Nc2nc(-c3ccccc3)ccc2N)cc1` [benzoic acid, methyl 4-[[(3-amino-6-phenyl-2-pyridinyl)amino]carbonyl]benzoate], for which the figures for the IC50 in data set [6] (setting [8]) and in data set [7] were 0.195 µM and 20 µM, respectively.

As to `CC(C)(C)c1ccc(C(=O)Nc2nc(-c3ccccc3)ccc2N)cc1` [N-(3-amino-6-phenyl-2-pyridinyl)-4-(1,1-dimethylethyl) benzamide], the IC50 stood at 0.235 µM in data set [6] (setting [8]) and 20 µM in data set [7].
